Common to all, as to format: biochemical
Experiment [1] concerns the target T1, IRAK4 (h) (Homo sapiens, UniProt Q9NWZ3).
T1 construct: purchased Eurofins Scientific Inc. Korea (contract assay service)
T1 sequence (Q9NWZ3 1-460): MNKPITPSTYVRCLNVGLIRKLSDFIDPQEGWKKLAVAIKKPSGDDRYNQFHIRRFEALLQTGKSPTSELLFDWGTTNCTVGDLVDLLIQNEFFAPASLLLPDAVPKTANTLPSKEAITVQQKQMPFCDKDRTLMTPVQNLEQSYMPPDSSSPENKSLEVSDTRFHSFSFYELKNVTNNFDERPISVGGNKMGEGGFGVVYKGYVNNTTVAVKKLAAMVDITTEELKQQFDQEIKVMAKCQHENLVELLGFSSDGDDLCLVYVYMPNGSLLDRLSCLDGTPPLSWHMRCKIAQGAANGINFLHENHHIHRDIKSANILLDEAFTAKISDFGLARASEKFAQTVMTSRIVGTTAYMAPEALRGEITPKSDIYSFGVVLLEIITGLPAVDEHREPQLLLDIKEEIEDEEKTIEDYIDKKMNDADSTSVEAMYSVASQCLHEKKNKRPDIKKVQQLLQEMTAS
Briefly: Enzymatic assay for IRAK4 (radiometric, Eurofins). Conditions: for IC50: in vitro enzymatic assay, duplicate, average, read-out: IC50 against IRAK4. The procedure:
(§1) Enzymatic assays for IRAK4, ASK1, ITK, and LYN were performed by Eurofins Scientific Inc. Korea (Brussels, Belgium). All assays were performed in duplicate, and the average IC50 value was reported.
IRAK4 (h) was incubated with 8 mM MOPS pH 7.0, 0.2 mM EDTA, 0.33 mg/mL myelin basic protein, 10 mM Mg acetate and [γ-^33P]-ATP (specific activity approx. 500 cpm/pmol, concentration as required). The reaction was initiated by the addition of a MgATP mix. After incubation for 40 min at room temperature, the reaction was stopped by the addition of 3% phosphoric acid solution. A total of 10 μL of the reaction was then spotted onto a P30 filtermat and washed three times for 5 min in 75 mM phosphoric acid, and once in methanol prior to drying and scintillation counting.

Experiment [2] addresses T2, LYN (h) (Homo sapiens, UniProt P07948).
T2 construct: purchased Eurofins Scientific Inc. Korea (contract assay service)
The experiment can be described thus: Enzymatic assay for LYN (radiometric, Eurofins). The settings on record: in vitro enzymatic assay, duplicate, average; read-out: IC50 against LYN. The procedure:
Enzymatic assays for IRAK4, ASK1, ITK, and LYN were performed by Eurofins Scientific Inc. Korea (Brussels, Belgium). All assays were performed in duplicate, and the average IC50 value was reported. LYN (h) was incubated with 50 mM Tris pH 7.5, 0.1 mM EGTA, 0.1 mM Na3VO4, 0.1% […], 0.1 mg/mL poly(Glu, Tyr) 4:1, 10 mM Mg acetate, and [γ-^33P]-ATP (specific activity approx. 500 cpm/pmol, concentration as required). The reaction was initiated by the addition of the MgATP mix. After incubation for 40 min at room temperature, the reaction was stopped by the addition of 3% phosphoric acid solution. A total of 10 μL of the reaction was then spotted onto a Filtermat A and washed three times for 5 min in 75 mM phosphoric acid, and once in methanol prior to drying and scintillation counting.

Experiment [3] has as its target T3, ASK1 (h) (Homo sapiens, UniProt Q99683).
T3 construct: purchased Eurofins Scientific Inc. Korea (contract assay service)
T3 sequence (Q99683 1-1374): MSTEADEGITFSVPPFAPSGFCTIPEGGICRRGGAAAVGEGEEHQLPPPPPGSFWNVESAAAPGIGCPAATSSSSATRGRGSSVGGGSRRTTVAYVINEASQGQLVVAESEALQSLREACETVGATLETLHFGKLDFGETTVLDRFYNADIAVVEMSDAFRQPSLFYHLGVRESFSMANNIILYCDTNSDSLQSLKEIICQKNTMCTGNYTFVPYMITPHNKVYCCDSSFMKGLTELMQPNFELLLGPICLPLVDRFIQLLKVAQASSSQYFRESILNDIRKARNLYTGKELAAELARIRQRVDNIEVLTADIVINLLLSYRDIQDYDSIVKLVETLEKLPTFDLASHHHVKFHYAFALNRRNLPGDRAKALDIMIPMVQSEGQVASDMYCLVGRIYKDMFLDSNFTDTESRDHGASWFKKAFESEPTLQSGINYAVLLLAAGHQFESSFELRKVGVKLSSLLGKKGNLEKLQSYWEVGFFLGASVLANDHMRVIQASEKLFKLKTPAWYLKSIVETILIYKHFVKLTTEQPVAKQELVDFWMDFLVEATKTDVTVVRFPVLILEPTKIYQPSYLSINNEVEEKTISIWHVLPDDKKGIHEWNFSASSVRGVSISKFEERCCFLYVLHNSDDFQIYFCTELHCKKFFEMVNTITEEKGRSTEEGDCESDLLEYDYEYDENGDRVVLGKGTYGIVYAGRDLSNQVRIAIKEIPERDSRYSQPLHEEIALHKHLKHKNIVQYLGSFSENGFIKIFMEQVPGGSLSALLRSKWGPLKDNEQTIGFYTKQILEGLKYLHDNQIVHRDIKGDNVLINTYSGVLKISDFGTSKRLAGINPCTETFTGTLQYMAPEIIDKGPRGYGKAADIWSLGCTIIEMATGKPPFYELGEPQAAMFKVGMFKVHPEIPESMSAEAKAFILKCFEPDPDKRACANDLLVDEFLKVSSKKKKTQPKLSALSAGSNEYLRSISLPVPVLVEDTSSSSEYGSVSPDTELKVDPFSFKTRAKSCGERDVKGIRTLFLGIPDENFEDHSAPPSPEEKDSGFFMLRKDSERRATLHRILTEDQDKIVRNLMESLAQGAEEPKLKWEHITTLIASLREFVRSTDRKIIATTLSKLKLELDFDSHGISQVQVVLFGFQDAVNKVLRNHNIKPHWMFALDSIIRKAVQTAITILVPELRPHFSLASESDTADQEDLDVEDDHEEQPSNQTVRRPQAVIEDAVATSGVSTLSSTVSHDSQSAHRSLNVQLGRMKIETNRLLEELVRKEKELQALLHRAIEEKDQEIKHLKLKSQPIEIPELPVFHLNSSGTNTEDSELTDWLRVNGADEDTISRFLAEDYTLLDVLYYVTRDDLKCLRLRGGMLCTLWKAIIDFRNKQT
The experiment can be described thus: Enzymatic assay for ASK1 (radiometric, Eurofins). The settings on record: in vitro enzymatic assay, duplicate, average; read-out: IC50 against ASK1. As for the experimental part:
as §1
ASK1 (h) was incubated with 8 mM MOPS pH 7.0, 0.2 mM EDTA, 0.33 mg/mL myelin basic protein, 10 mM Mg acetate and [γ-^33P]-ATP (specific activity approx. 500 cpm/pmol, concentration as required). The reaction was initiated by the addition of the MgATP mix. After incubation for 40 min at room temperature, the reaction was stopped by the addition of 3% phosphoric acid solution. A total of 10 μL of the reaction was then spotted onto a P30 filtermat and washed three times for 5 min in 75 mM phosphoric acid, and once in methanol prior to drying and scintillation counting.

Experiment [4] addresses T4, ITK (h) (Homo sapiens, UniProt Q08881).
T4 construct: purchased Eurofins Scientific Inc. Korea (contract assay service)
T4 sequence (Q08881 1-620): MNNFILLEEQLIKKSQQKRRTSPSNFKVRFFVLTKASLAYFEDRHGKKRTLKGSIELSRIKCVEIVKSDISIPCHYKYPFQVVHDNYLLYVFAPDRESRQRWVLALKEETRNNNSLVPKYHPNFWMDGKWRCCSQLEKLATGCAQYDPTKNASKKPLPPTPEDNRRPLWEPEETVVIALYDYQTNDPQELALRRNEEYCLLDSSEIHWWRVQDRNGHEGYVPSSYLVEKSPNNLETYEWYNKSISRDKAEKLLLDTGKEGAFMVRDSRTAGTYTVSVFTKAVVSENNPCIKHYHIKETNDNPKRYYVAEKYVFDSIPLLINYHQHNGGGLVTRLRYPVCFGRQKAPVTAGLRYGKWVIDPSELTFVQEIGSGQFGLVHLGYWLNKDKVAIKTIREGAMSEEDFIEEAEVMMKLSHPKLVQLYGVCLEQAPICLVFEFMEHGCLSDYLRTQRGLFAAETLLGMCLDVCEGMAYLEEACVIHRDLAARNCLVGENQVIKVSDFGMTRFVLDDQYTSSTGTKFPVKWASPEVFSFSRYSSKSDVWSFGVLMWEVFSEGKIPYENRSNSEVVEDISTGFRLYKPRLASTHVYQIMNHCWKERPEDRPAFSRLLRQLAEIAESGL
The experiment can be described thus: Enzymatic assay for ITK (radiometric, Eurofins). Conditions: in vitro enzymatic assay, duplicate, average; read-out: IC50 against ITK. As for the experimental part:
Enzymatic assays for IRAK4, ASK1, ITK, and LYN were performed by Eurofins Scientific Inc. Korea (Brussels, Belgium). All assays were performed in duplicate, and the average IC50 value was reported. ITK (h) was incubated with 8 mM MOPS pH 7.0, 0.2 mM EDTA, 0.33 mg/mL myelin basic protein, 10 mM Mg acetate, and [γ-^33P]-ATP (specific activity approx. 500 cpm/pmol, concentration as required). The reaction was initiated by the addition of the MgATP mix. After incubation for 40 min at room temperature, the reaction was stopped by the addition of 3% phosphoric acid solution. A total of 10 μL of the reaction was then spotted onto a P30 filtermat and washed three times for 5 min in 75 mM phosphoric acid, and once in methanol prior to drying and scintillation counting.

T2 sequence (P07948 whole entry): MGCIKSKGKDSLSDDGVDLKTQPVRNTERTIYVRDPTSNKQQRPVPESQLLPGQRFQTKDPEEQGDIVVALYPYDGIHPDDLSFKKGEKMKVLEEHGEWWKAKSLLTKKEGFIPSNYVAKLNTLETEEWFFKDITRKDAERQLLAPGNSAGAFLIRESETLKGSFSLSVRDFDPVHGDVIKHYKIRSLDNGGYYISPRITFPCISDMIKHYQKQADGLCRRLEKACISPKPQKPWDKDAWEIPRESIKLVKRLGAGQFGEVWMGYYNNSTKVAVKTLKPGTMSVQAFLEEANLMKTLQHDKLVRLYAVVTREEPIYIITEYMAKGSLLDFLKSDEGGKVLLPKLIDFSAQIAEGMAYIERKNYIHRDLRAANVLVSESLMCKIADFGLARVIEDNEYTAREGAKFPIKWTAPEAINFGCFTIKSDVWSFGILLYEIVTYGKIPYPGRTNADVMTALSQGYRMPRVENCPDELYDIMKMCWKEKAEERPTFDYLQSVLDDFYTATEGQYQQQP

On to “4-(5-Benzylamino-imidazo[4,5-b]pyridine-1-yl)-benzonitrile [Compound 3]”, for which, in experiment [1] (at 10 μM), the “inhibition of IRAK4” value worked out at 97%. Moreover, the IC50 (usually the point on the concentration scale where inhibition reaches its midpoint) in experiment [1] worked out at 158 nM.
In the case of `COCc1nc2ccc(NC(=O)c3ccc(Br)o3)cc2[nH]1` [Compound 2], the IC50 in experiment [1] is 6650 nM.
For `CC(C)(C)c1ccc(C(=O)Nc2cn3cc(-n4ccnc4)ccc3n2)cc1` [Compound 1], the IC50 in experiment [1] was 187 nM; in experiment [2], 2390 nM; in experiment [3] it was 53 nM; in experiment [4] it was 1670 nM.

The values above are taken from paper PMC6321621, “Design of a Novel and Selective IRAK4 Inhibitor Using Topological Water Network Analysis and Molecular Modeling Approaches” (Molecules, 2018).
